Source: patent US9834514B2, “Antibiotic sensitivity-restoring and photosensitive agents” (New Mexico Tech Research Foundation, priority 2015, dated 2017)
In brackets after ≈: the same amount, converted by molar mass. Like-named read-outs stand apart in the source and are kept apart here.

Experiments:
VRE = assay: MIC against VRE; type: cell-based, Enterococcus faecalis
Protocol: In a 12×75 mm borosilicate glass culture tube, 1 mL of cell suspension was added. Then, compound 7 was added to the cells, and the samples were mixed using a vortex mixer. […] The samples were incubated overnight at 37° C. on a rotary shaking incubator at 100 rpm.

MRSA [1] = assay: MIC of a compound of the invention and ampicillin, alone and in combination; type: cell-based
Text: Compounds of the invention can increase the potency of antibiotics. […] The ability of compounds of the invention to synergize with structurally and mechanistically unrelated antibiotics can be a result of the inhibition of bacterial efflux.

MRSA [2] = assay: Minimum bactericidal concentration (MBC) with and without white light; type: cell-based, S. aureus; conditions: Staphylococcus aureus, light or radiation study
Protocol: The bacterial media was inoculated with bacteria and incubated overnight. The bacterial cultures were diluted to 5×10^8 CFU/mL using a McFarland latex turbidity standard (0.5). Compound 1 was diluted with sterile DMSO, which was added to the cell suspension in glass culture tubes. The cells were then incubated for 30 minutes at 37° C. on a rotary shaking incubator at 150 rpm. 500 μL of the treated cell suspension was added to a well on a sterile ceramic drop plate. Non-coherent white light from a Lumacare™ LC-122 unit was used to irradiate the samples. The end of the light probe was placed 3 cm above the sample well, perpendicular to the surface of the sample, and light was applied for 2 minutes (15 seconds light, 15 seconds dark). 200 μL of the irradiated sample was transferred to a 96-well plastic microtiter plate and five ten-fold dilutions were made in the media. 10 μL of each dilution was dripped onto an agar media plate and was allowed to streak down the plate by tilting the plate down. The agar plates were incubated at 37° C. overnight and colony counts were performed to calculate the CFU/mL.
TABLE 14 details the MBC values of compounds 1-6 against MRSA with and without irradiation with white light. Irradiation involved treatment with a LumaCare™ light source at 3 cm from media for 1 min.

[3] = system: MES-SA/Dx5 (human uterine sarcoma grown in presence of doxorubicin); assay: Light-activated killing of cell lines (IC50 with/without light); type: cell-based; conditions: Homo sapiens
Protocol: (§1) TABLE 15 depicts the IC50 of compounds in the presence or absence of light for human cell lines. The cell lines used were HeLa (human cervical adenocarcinoma), U-87 MG (human brain gliobastoma), MES-SA (human uterine sarcoma), MES-SA/D×5 (human uterine sarcoma grown in presence of doxorubicin), NCI-H441 (human lung papillary adenocarcinoma), A549 (human lung carcinoma), WI-38 (human embryonic lung normal), MCF7 (human breast adenocarcinoma), SW1088 (human brain astrocytoma), B16F10 (mouse skin melanoma), NIH-3T3 (mouse fibroblast), and Jurkat (human lymphoblastoma). “1-Sol” in TABLE 15 was generated by dissolving compound 1 and potassium hydroxide at a 1:1 ratio in a DMSO/water solution. The cells were irradiated with continuous white light using a LumaCare™ light source for 2 minutes at a distance of 6.5 cm from the cells.

[4] = system: U-87 MG (human brain gliobastoma); assay: as above; type: cell-based
Protocol: as §1

S. aureus (ATCC 29213) [5] = assay: MIC against drug sensitive S. aureus; type: cell-based; conditions: Staphylococcus aureus, ATCC29213; ATCC 29213; read-out: S. aureus MIC
S. aureus (ATCC 29213) [6] = assay: microbe, parasite or virus in culture; type: cell-based; conditions: for MIC: Staphylococcus aureus
Protocol: Each mixture was incubated at 37° C. on a rotary shaking incubator for about 16 hours. MTT was then added to assess the viability of the cells (at 10% well volume). […] The cells were then streaked onto a TSA plate and incubated overnight at 37° C. These steps were repeated to reach a total of 30 exposures.

[7] = MIC against MRSA isolates; type: cell-based, S. aureus; conditions: Staphylococcus aureus
Protocol: The MICs of S. aureus ATCC 33591, BAA-44, BAA-1707, BAA-1717, BAA-1720, BAA-1747, BAA-1754, BAA-1761, BAA-1763, BAA-1764, and BAA-1766 were measured using a cell concentration of about 5×10^5 colony forming units (CFU)/mL. In a 96-well microtiter plate, two-fold dilutions were made of each drug (starting with 100 μM) in 100 μL of a cell suspension in trypticase soy broth (TSB). The samples were incubated overnight at 37° C. on a rotary shaking incubator set at 100 revolutions per minute (rpm) and were visually inspected for turbidity. A 20% well-volume of 3-(4,5-dimethylthiazol-2-yl)-2,5-diphenyltetrazolium bromide (MTT reagent, 5 mg/mL) was added, and the samples were incubated for about 20 minutes. The MICs were determined as the lowest concentration at which full visual inhibition was observed by the unaided eye.

## CC1(C)S[C@@H]2[C@H](NC(=O)[C@H](N)c3ccccc3)C(=O)N2[C@H]1C(=O)O [Ampicilin, ampicillin]
VRE; TABLE 24
  S/R: S
VRE; common antibiotics, TABLE 24
  MIC: 2 to 4 µg/mL
MRSA [1]; combination versus alone
  fold decrease in concentration in combination: 8 fold
MRSA [1]; compound used in combination with ampicillin
  concentration needed for full killing in combination: about 572 μM
MRSA [1]; single agent
  mean inhibitory concentration (MIC), alone: about 4579 μM

## Fc1ccc(/C=C/c2[nH]c3ccccc3c2/C=C/c2ccc(F)cc2)cc1 [Compound 4]
MRSA [2]; 1 min, LumaCare light source at 3 cm from media for 1 min, read-out: MBC with irradiation
  MBC: 0.5 µM (≈ 0.179 µg/mL)
MRSA [2]; no irradiation, read-out: MBC in the dark
  MBC: 100 µM (≈ 35.7 µg/mL)
[3]; MES-SA/Dx5, 2 min, MES-SA/Dx5 (no doxorubicin), white light 2 minutes, read-out: Compound + light IC50
  IC50: 1.31 ± 0.51 µM
[3]; MES-SA/Dx5, 2 min, MES-SA/Dx5 + doxorubicin, white light 2 minutes, read-out: Compound + light IC50
  IC50: 0.67 ± 0.01 µM
[3]; MES-SA/Dx5, MES-SA/Dx5 (no doxorubicin), no light, read-out: Compound IC50
  IC50: 57.2 ± 10.3 µM
[3]; MES-SA/Dx5, MES-SA/Dx5 + doxorubicin, no light, read-out: Compound IC50
  IC50: 40.9 ± 1.36 µM
[4]; 2 min, white light 2 minutes, read-out: Compound + light IC50
  IC50: 1.01 ± 0.16 µM
[4]; no light, read-out: Compound IC50
  IC50: 42.6 ± 5.53 µM

## CCn1cc(C(=O)O)c(=O)c2cc(F)c(N3CCNCC3)cc21 [Norfloxacin, reference compound]
S. aureus (ATCC 29213) [5]
  MIC: 1.25 to 2.5 µg/mL (≈ 3.91 to 7.83 µM)
VRE; Enterococcus, TABLE 23, read-out: VRE MIC
  MIC: 2.5 µg/mL (≈ 7.83 µM)
VRE; Enterococcus, common antibiotics, TABLE 24, read-out: MIC
  MIC: 1 µg/mL (≈ 3.13 µM)
VRE; TABLE 24
  S/R: S
S. aureus (ATCC 29213) [6]
  Resistance Evolved: Yes
S. aureus (ATCC 29213) [6]; ATCC29213, read-out: Final MIC Apr. 16, 2015
  MIC: > 16 µM
S. aureus (ATCC 29213) [6]; ATCC29213, read-out: Initial MIC Mar. 10, 2015
  MIC: 2 µM (≈ 0.639 µg/mL)
[7]; MRSA (ATCC BAA-44), TABLE 21, read-out: MRSA MIC
  MIC: 100 µg/mL (≈ 313 µM)
[7]; antibiotics, MRSA isolate ATCC 33591, read-out: MIC
  MIC: 25 µg/mL (≈ 78.3 µM)
[7]; antibiotics, MRSA isolate ATCC BAA-44, read-out: MIC
  MIC: 100 µg/mL (≈ 313 µM)
[7]; antibiotics, MRSA isolate ATCC BAA-1707, read-out: MIC
  MIC: < 3.1 µg/mL
[7]; antibiotics, MRSA isolate ATCC BAA-1720, read-out: MIC
  MIC: > 100 µg/mL
[7]; antibiotics, MRSA isolate ATCC BAA-1747, read-out: MIC
  MIC: 6.3 µg/mL (≈ 19.7 µM)
[7]; antibiotics, MRSA isolate ATCC BAA-1754, read-out: MIC
  MIC: < 3.1 µg/mL
[7]; antibiotics, MRSA isolate ATCC BAA-1761, read-out: MIC
  MIC: > 100 µg/mL
[7]; antibiotics, MRSA isolate ATCC BAA-1763, read-out: MIC
  MIC: > 100 µg/mL
[7]; antibiotics, MRSA isolate ATCC BAA-1764, read-out: MIC
  MIC: < 3.1 µg/mL
[7]; antibiotics, MRSA isolate ATCC BAA-1766, read-out: MIC
  MIC: < 3.1 µg/mL
